Test results taken from PubChem BioAssay (NCI).
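Each compound was tested at five concentrations against cells in 96-well plates for 48 hours. TGI is the concentration that stops growth completely.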

Tests used:
Assay in all cases: NCI-60 cell line screen, 48 h
CAKI-1 renal = system: CAKI-1 renal
HCT-15 colon = system: HCT-15 colon
HL-60(TB) leukemia = system: HL-60(TB) leukemia
HS 578T breast = system: HS 578T breast
HT29 colon = system: HT29 colon
KM12 colon = system: KM12 colon
MCF7 breast = system: MCF7 breast
NCI-H226 lung = system: NCI-H226 lung
NCI-H522 lung = system: NCI-H522 lung
OVCAR-4 ovarian = system: OVCAR-4 ovarian
OVCAR-8 ovarian = system: OVCAR-8 ovarian
SF-268 CNS = system: SF-268 CNS
SK-MEL-2 melanoma = system: SK-MEL-2 melanoma
SNB-75 CNS = system: SNB-75 CNS
T-47D breast = system: T-47D breast
U251 CNS = system: U251 CNS
UACC-257 melanoma = system: UACC-257 melanoma
UACC-62 melanoma = system: UACC-62 melanoma
OVCAR-5 ovarian = system: OVCAR-5 ovarian

SMILES | TGI (CAKI-1 renal) | TGI (HCT-15 colon) | TGI (HL-60(TB) leukemia) | TGI (HS 578T breast) | TGI (HT29 colon) | TGI (KM12 colon) | TGI (MCF7 breast) | TGI (NCI-H226 lung) | TGI (NCI-H522 lung) | TGI (OVCAR-4 ovarian) | TGI (OVCAR-8 ovarian) | TGI (SF-268 CNS) | TGI (SK-MEL-2 melanoma) | TGI (SNB-75 CNS) | TGI (T-47D breast) | TGI (U251 CNS) | TGI (UACC-257 melanoma) | TGI (UACC-62 melanoma) | TGI (OVCAR-5 ovarian)
CN(C)Cc1cc(N=Nc2c(Cl)cccc2Cl)ccc1O | > 100 µM | > 100 µM | > 100 µM | > 100 µM | > 100 µM | > 100 µM | > 100 µM | > 100 µM | > 100 µM | > 100 µM | > 100 µM | > 100 µM | > 100 µM | > 100 µM | > 100 µM | > 100 µM | > 100 µM | > 100 µM | 
O=S(=O)(O)c1ccc(N=Nc2c(O)ccc3ccccc23)cc1 | > 100 µM | > 100 µM | > 100 µM | > 100 µM | > 100 µM | > 100 µM | > 100 µM | > 100 µM | > 100 µM | > 100 µM | > 100 µM | > 100 µM | > 100 µM | > 100 µM | > 100 µM | > 100 µM | > 100 µM | > 100 µM | > 100 µM
CC1=NN(c2cccc(Cl)c2)C(=N/c2nc3ccccc3s2)/C1=C\c1ccccc1O | > 100 µM | 81.1 µM | 80.6 µM | 56.5 µM | 97.8 µM | > 100 µM | > 100 µM | 87.8 µM | 49.4 µM | > 100 µM | > 100 µM | 78.8 µM | 40.3 µM | > 100 µM | > 100 µM | 61 µM | 62.2 µM |  | > 100 µM
Nc1c(O)c2c(c(O)c1Cl)C(=O)C=CC2=O | 32.2 µM | > 36.8 µM | 6.13 µM | 37.1 µM | 8.21 µM | 13.3 µM | 3.51 µM | 34.3 µM | 28 µM | 16.2 µM | 14 µM | 26.3 µM | 23.8 µM | 12.6 µM | 21.5 µM | 15.8 µM | 3.3 µM | 3.05 µM | 11.4 µM
O=C1CSC2(CC(/C=C/c3cccc(Br)c3)=NN2c2cccc(S(=O)(=O)O)c2)N1c1nc2ccccc2s1 (stereo not given) | > 100 µM | > 100 µM |  | > 100 µM | > 100 µM | > 100 µM | > 100 µM | > 100 µM | > 100 µM | > 100 µM | > 100 µM | > 100 µM | > 100 µM | > 100 µM | > 100 µM | > 100 µM | > 100 µM | > 100 µM | > 100 µM
N#Cc1c(Cl)cccc1Oc1ccc(S(=O)(=O)/N=C(\NO)Nc2ccc(Cl)cc2)cc1 | 29.2 µM | 34.1 µM | 37.8 µM | 71.1 µM | 31.5 µM | 31.2 µM | 46.2 µM | 48 µM | 35.6 µM | 31.4 µM | 43.5 µM | 46.9 µM | 38.5 µM |  | 28.3 µM | 33.1 µM | 32.1 µM | 29.3 µM | 34.9 µM
COP(=N[Si](C)(C)C)(OC)OC | > 100 µM | > 100 µM | > 100 µM | > 100 µM | > 100 µM | > 100 µM | > 100 µM | > 100 µM | > 100 µM | > 100 µM | > 100 µM | > 100 µM | > 100 µM | > 100 µM | > 100 µM | > 100 µM | > 100 µM | > 100 µM | > 100 µM
CCOC(=O)NC(OCCN(C)C)(C(F)(F)F)C(F)(F)F | > 100 µM | > 100 µM | > 100 µM | > 100 µM | > 100 µM | > 100 µM | > 100 µM | > 100 µM | > 100 µM |  | > 100 µM | > 100 µM | > 100 µM | > 100 µM | > 100 µM | > 100 µM | > 100 µM | > 100 µM | > 100 µM
Cc1ccc([N+](=O)[O-])cc1S(=O)(=O)Nc1ccc(C2=NOC(c3ccccc3)C2)cc1 (stereo not given) | 32.7 µM | > 100 µM | 25.2 µM | > 100 µM | 43.8 µM | 18.5 µM | 16.5 µM | > 100 µM | 30.1 µM | 11.8 µM | > 100 µM | > 100 µM | 21.3 µM | 70.3 µM | 51.1 µM |  | 79.6 µM | 18.3 µM | > 100 µM
COC(=O)C1=C(O)C(C(=O)OC)[C@]2(O)[C@H](C(=O)OC)[C@H]1C[C@@H](c1ccc(Cl)cc1Cl)[C@H]2C(=O)OC (stereo not given in full) | > 100 µM | 27.6 µM | 7.9 µM | > 100 µM | 27.4 µM | 32.9 µM | 23 µM | 16.3 µM |  | 67.6 µM | 18 µM | 38.1 µM | 20.3 µM | 37.2 µM | 96.9 µM | 14.4 µM | 28.7 µM | 35.3 µM | 40.7 µM
CNc1nc2c(C)ccc3nc(N(C)C)nc-3c2n1C | > 10 µM | > 10 µM |  | > 10 µM | > 10 µM | > 10 µM | > 10 µM | > 10 µM | > 10 µM | > 10 µM | > 10 µM | > 10 µM | > 10 µM | > 10 µM | > 10 µM | > 10 µM | > 10 µM |  | > 10 µM
CCOC(=O)NC(Nc1cccc(F)c1)(C(F)(F)F)C(F)(F)F | > 100 µM | > 100 µM | > 100 µM | > 100 µM | > 100 µM | > 100 µM | > 100 µM | > 100 µM | > 100 µM |  | > 100 µM | > 100 µM | > 100 µM | > 100 µM | > 100 µM | > 100 µM | > 100 µM | > 100 µM | > 100 µM
COc1cc2c(cc1C)NC(=O)/C2=C\c1cccnc1 | 36.2 µM | > 100 µM | > 100 µM | 96.6 µM | > 100 µM | 35.6 µM | 47.8 µM |  | 70.2 µM | 40.4 µM | 72.6 µM | 50 µM | 76.1 µM | 50.2 µM | 11.7 µM | > 100 µM | 28.4 µM |  | 31.8 µM
